Earlier results as cited in patent US7132452B2, “Topical formulation having effects on alleviating pain/inflammation caused by herpes virus infection” (priority 2003, dated 2006).

Row | SMILES | solubility in water
1 | O=C(c1ccccc1)c1ccc2n1CCC2C(=O)O (racemic) [ketorolac, (±)-5-benzoyl-2,3-dihydro-1H-pyrrolizine-1-carboxylic acid] | very low solubility in water
2 | O=C(O)Cc1ccccc1Nc1c(Cl)cccc1Cl [diclofenac, 2-(2,6-dichloro-anilino)-phenyl-acetic acid] | relatively low solubility in water
3 | O=C(c1ccccc1)c1ccc2n1CCC2C(=O)O (stereo not drawn) [ketorolac tromethamine] | much more water soluble than the free acid form of ketorolac
